As usually defined, the inhibition is the share of the control response that was lost under treatment. The low end stands for a weak effect, the high end for a strong effect. What is called viability is a read-out of living cells in per cent, often relative to untreated cells. Usually IC50 stands for the midpoint of a concentration-inhibition curve. Broadly, the remaining activity is the share of the control activity or signal that is left under treatment. A higher remaining activity goes with a small loss of activity.

One assay has as its system TNF-α. The assay is described as follows: TNF-α expression in LPS stimulated PBMCs (Meso Scale). The format is cell-based, human. The conditions noted are these: for inhibition at 10 µM: compound concentration 10 μM; for inhibition at 1 µM: compound concentration 1 μM. As to the method: FIGS. 7 and 9C are graphs showing TNF-a expression in LPS stimulated peripheral blood mononuclear cells (PBMCs). PBMCs were plated in 96-well plates and pretreated with compound (Compound 1-9 individually) for 1 h, and then induced with 100 ng/mL LPS for 18-24 h. Cytokines in the media were measured according to MesoScale protocol. The negative control wells were treated with DMSO. Compound activity is measured as a percentage of LPS-induced activity. “Rev” is lenalidomide.
(§1) Frozen primary blood mononuclear cells (PBMCs) and frozen CD14+ mobilized peripheral blood monocytes were purchased from AllCells. Cells were quick thawed, and washed 1-time with RPMI-1640/10% FBS/1% Penicillin/1% Streptomycin and plated in 96-well plates at 200,000 cells per well. Cells were pretreated with DMSO only, Compound 5013 (lenolidamide) or the indicated compound for 1 h and then induced with 100 ng/mL lipopolysaccharide (LPS) for 18-24 h. The supernatant was analyzed for IL-1 beta, IL-6, and TNF-α using Meso Scale assay according to manufacturer's protocol. The negative control wells were treated with DMSO.
(§2) PBMCs: AllCells PB003F, Normal Peripheral Blood MNC.
(§3) Media: RPMI 1640/10% FBS/1% Pen-Strep.

A further assay relates to IL-1β. The assay is described as follows: IL-1β expression in LPS stimulated PBMCs (Meso Scale). It is filed as cell-based, human. Particulars: for inhibition at 10 µM: compound concentration 10 μM; for inhibition at 1 µM: compound concentration 1 μM. As to the method:
FIGS. 5 and 9A are graphs showing IL-1-beta expression in LPS stimulated peripheral blood mononuclear cells (PBMCs), PBMCs were plated in 96-well plates and pretreated with compound (Compound 1-9 individually) for 1 h, and then induced with 100 ng/mL LPS for 18-24 h. Cytokines in the media were measured according to MesoScale protocol. Negative control wells were treated with DMSO. Compound activity is measured as a percentage of LPS-induced activity. “Rev” is lenalidomide.
as §1, §2, §3

The next assay relates to MDA-MB-231 cells. In words: MDA-MB-231 cell viability (CellTiter-Glo). It is filed as cell-based. Particulars: Homo sapiens, 72 h, 3 days, DMSO = 100.00; for viability at 1 µM: 1 μM compound concentration; for viability at 10 µM: 10 μM compound concentration. As to the method: (§4) Molm-13 cells were cultivated in RPMI-1640 (10% FBS/1% pen-strep) and were plated in white walled 96-well plates at 20,000 cells/well. H1048 cells were cultured in DMEM:F12 media supplemented with 5% fetal bovine serum, insulin, transferrin, sodium selenite, hydrocortisone, β-estradiol, penicillin and streptomycin, and were plated in white walled 96-well plates at 20,000 cells/well. MDA-MB-231 cells were cultured in DMEM media supplemented with 10% fetal bovine serum, penicillin and streptomycin, and were plated in white walled 96-well plates at 10,000 cells/well. Cells were treated with compound or DMSO (0.1%, control) and the cultures were incubated for 3 days at 37° C. and 5% CO2. Following the incubation period, 100 μL of CellTiterGlow (CTG) reagent (CellTiter-Glo® Luminescent Cell Viability Assay, Promega (Madison, Wis.)) was added to each well. Following a 10 min incubation with shaking, luminescence was measured using a Victor Wallac Luminometer.
In general terms: Cellular ATP, detected with luciferase, serves as a proxy for viable cell number.

In the next assay the test system is IL-6. The assay is described as follows: IL-6 expression in LPS stimulated PBMCs (Meso Scale). The format is cell-based, human. Particulars: for inhibition at 10 µM: compound concentration 10 μM; for inhibition at 1 µM: compound concentration 1 μM. As to the method:
FIGS. 6 and 9B are graphs showing IL-6 expression in LPS stimulated peripheral blood mononuclear cells (PBMCs). PBMCs were plated in 96-well plates and pretreated with compound (Compound 1-9 individually) for 1 h, and then induced with 100 ng/mL LPS for 18-24 h. Cytokines were measured according to MesoScale protocol. Negative control wells were treated with DMSO. Compound activity was measured as a percentage of LPS-induced activity. “Rev” is lenalidomide.
as §1, §2, §3

For another assay, the system named is Molm-13 cells. In words: Molm-13 cell viability (CellTiter-Glo). The format is cell-based. Particulars: Homo sapiens; for cytotoxicity at 10 µM: compound concentration 10 μM; for cytotoxicity at 1 µM: compound concentration 1 μM. As to the method: (§5) FIG. 10A is a graph showing antiproliferative activity in H1048 (SCLC) cells. FIG. 10B is a graph showing antiproliferative activity in Molm-13 (AML) cells. In FIGS. 10A and 10B, the cells were incubated for 72 hrs with Compound 9 at the indicated concentrations or DMSO. Compound activity was measured based on the signal from remaining viable cells.
as §4

A further assay deals with H1048 cells. In words: H1048 cell viability (CellTiter-Glo). The format is cell-based. The conditions noted are these: Homo sapiens; for viability at 1 µM / viability at 10 µM: NCI-H1048, 72 h, H1048, 3 days, DMSO = 100.00; for viability at 1 µM: 1 μM compound concentration; for viability at 10 µM: 10 μM compound concentration. As to the method: as §5, §4
A further assay addresses T1, GSPT1 (Homo sapiens, UniProt P15170).
T1 construct: Whole cell extracts were prepared using RIPA buffer according to manufacturer's protocol (Pierce); endogenous in cells
In words: GSPT1 protein levels by Western Blot analysis. It is filed as cell-based. The conditions noted are these: DMSO = 100.00. As to the method:
Cells were lysed using RIPA Buffer (Pierce) and a Western Blot analysis was performed using anti-GSPT1 and anti-β-actin antibodies. FIG. 11B is a graph showing the expression levels of GSPT1 protein in Molm-13 (AML) cells. Protein expression levels were measured using the LiCor Odyssey instrumentation and methods.
Western Blot Protocol: Cell lines were grown in RPMI 1640 supplemented with streptomycin, penicillin and 10% fetal bovine serum.
Cells were cultured at approximately 10^6 cells per mL and incubated in DMSO or each of the indicated compounds for 6-8 h. Whole cell extracts were prepared using RIPA buffer according to manufacturer's protocol (Pierce). Briefly, 2×10^6 cells were washed once in PBS, the cell pellets were resuspended in RIPA buffer and allowed to incubate for 15 minutes on ice. Cells debris was removed by centrifugation and the cleared whole cell lysates were transferred to new tubes for further analysis.
For Western blot analysis, whole cell protein extracts were separated on 4-12% SDS-polyacrylamide gels, transferred to nitrocellulose, and probed with the indicated primary antibodies. Membranes were subsequently washed and probed with the appropriate IRDye secondary antibodies (LI-COR). The signal was detected using the Odyssey Imaging System (LI-COR).
GSPT1: Rabbit anti-GSPT1 was obtained from Abcam, ab126090 (Cambridge, Eng.)

[1] abbreviates: Homo sapiens, PBMC, compound concentration 0.1 μM.
[2] abbreviates: Homo sapiens, PBMC, LPS-stimulated PBMCs.
Where [3] appears, read: MOLM-13, read-out: % Inhibition (MOLM-13 Cell Viability).

T1 sequence (P15170 whole entry): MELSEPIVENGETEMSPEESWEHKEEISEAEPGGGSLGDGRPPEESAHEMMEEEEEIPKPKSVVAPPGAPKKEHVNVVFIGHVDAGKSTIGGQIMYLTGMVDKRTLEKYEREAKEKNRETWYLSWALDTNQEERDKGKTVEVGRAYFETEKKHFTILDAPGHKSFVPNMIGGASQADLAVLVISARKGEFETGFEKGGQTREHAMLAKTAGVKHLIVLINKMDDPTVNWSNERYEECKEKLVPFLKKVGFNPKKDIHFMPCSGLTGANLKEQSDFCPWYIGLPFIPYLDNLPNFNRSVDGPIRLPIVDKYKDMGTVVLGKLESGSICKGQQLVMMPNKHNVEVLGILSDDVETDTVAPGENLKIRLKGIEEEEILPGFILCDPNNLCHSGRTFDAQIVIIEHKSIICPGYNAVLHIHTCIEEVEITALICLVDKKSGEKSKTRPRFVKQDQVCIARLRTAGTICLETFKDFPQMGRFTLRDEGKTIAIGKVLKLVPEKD
T1 sequence (Q96SW2 whole entry, further chain): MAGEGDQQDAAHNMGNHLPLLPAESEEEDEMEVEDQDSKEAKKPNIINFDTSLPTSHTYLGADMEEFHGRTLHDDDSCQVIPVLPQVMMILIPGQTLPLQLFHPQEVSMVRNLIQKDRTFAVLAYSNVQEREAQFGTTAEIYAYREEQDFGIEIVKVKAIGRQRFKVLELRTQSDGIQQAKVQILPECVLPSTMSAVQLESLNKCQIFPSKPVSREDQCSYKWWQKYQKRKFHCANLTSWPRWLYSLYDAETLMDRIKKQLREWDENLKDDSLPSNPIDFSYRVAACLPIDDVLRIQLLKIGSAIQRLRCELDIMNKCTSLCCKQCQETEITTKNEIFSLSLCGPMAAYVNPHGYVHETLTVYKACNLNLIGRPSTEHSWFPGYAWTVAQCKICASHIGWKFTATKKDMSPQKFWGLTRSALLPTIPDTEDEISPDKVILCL
T1 sequence (Q16531 whole entry partner): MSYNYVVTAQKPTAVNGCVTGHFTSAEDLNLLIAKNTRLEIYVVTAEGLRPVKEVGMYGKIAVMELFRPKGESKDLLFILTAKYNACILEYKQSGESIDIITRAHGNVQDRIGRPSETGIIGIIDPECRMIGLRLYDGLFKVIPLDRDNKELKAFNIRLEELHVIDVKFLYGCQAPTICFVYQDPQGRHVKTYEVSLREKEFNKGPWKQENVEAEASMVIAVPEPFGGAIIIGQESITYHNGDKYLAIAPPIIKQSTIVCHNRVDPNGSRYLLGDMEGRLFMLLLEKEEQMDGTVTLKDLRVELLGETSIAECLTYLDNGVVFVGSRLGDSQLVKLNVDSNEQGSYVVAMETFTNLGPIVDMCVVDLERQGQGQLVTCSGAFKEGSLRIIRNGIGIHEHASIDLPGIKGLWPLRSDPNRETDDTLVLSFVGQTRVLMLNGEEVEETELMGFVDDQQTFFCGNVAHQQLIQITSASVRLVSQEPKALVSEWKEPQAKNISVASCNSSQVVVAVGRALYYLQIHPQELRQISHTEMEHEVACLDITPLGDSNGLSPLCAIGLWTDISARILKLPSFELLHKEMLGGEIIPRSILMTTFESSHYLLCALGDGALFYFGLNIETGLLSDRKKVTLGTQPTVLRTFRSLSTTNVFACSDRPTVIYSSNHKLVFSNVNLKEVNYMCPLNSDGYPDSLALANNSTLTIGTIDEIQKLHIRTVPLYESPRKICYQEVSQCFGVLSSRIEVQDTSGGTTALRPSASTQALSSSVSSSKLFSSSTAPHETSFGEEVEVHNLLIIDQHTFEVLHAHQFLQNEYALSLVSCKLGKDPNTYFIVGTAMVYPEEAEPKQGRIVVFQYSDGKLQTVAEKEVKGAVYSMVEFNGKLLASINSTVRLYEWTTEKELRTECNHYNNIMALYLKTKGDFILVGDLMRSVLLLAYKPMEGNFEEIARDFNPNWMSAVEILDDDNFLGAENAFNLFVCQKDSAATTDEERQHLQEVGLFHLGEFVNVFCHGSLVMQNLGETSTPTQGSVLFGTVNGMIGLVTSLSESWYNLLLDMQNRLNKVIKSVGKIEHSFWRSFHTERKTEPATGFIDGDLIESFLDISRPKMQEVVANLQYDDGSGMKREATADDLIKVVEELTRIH

With `Cc1ccc(NC(=O)NCc2scc3c2CN(C2CCC(=O)NC2=O)C3=O)cc1Cl` (stereo not drawn) [Compound 9, 1-(3-chloro-4-methylphenyl)-3-((5-(2,6-dioxopiperidin-3-yl)-4-oxo-5,6-dihydro-4H-thieno[3,4-c]pyrrol-1-yl)methyl)urea], the inhibition at 0.1 µM stood at 98% in the assay with TNF-α (setting [1]); 98% in the assay on IL-1β (setting [1]); 100% in the assay with IL-6 (Homo sapiens, PBMC, compound concentration 0.1 μM, LPS-stimulated PBMCs). Moreover, the viability at 1 µM in the assay with MDA-MB-231 cells is 19.6%; with H1048 cells, 7.5%. In addition, the viability at 10 µM was 19.1% in the assay on MDA-MB-231 cells and 7.93% in the assay with H1048 cells. Further, the cytotoxicity at 0.003 µM with Molm-13 cells (MOLM-13, compound concentration 0.003 μM, read-out: % Inhibition (MOLM-13 Cell Viability)) is 50%. In addition, the IC50 is approximately 3 nM with Molm-13 cells (Molm-13 cells, 72 hrs (FIG. 10B), read-out: approximate IC50 cell viability) and 0.5 nM in the assay on H1048 cells (NCI-H1048, H1048 cells, 72 hrs (FIG. 10A)). Also, the remaining activity at 0.1 µM at GSPT1 (100 nM compound concentration) amounted to 6.77%. The remaining activity at 1 µM on GSPT1 (1 μM compound concentration) is 5.31%.
Take `O=C1CCC(N2Cc3c(csc3C(F)(F)F)C2=O)C(=O)N1` (stereo not drawn) [Compound 29, 3-(4-Oxo-1-(trifluoromethyl)-4H-thieno[3,4-c]pyrrol-5(6H)-yl)piperidine-2,6-dione]: the inhibition at 10 µM with TNF-α (Homo sapiens, PBMC) turned out to be 60%; in the assay with IL-1β (Homo sapiens, PBMC), 57%; with IL-6 (setting [2]), 19%. Further, the cytotoxicity at 10 µM with Molm-13 cells (setting [3]) is 10%.
Regarding `Cc1ccc(NC(=O)Nc2scc3c2CN(C2CCC(=O)NC2=O)C3=O)cc1Cl` (stereo not drawn) [Compound 50, 1-(3-Chloro-4-methylphenyl)-3-(5-(2,6-dioxopiperidin-3-yl)-4-oxo-5,6-dihydro-4H-thieno[3,4-c]pyrrol-1-yl)urea], the inhibition at 1 µM in the assay on TNF-α (Homo sapiens, PBMC) was 1%; in the assay on IL-1β (Homo sapiens, PBMC), 14%; in the assay with IL-6 (setting [2]), 0%. In addition, the viability at 1 µM in the assay with MDA-MB-231 cells came to 108%; with H1048 cells, 15.8%. Moreover, the viability at 10 µM in the assay with MDA-MB-231 cells turned out to be 95.7%; in the assay on H1048 cells, 13.4%. Moreover, in the assay on Molm-13 cells (setting [3]), the cytotoxicity at 1 µM was found to be 41%.
Consider `Cc1ccc(CNC(=O)NCc2csc3c2CN([C@H]2CCCC(=O)NC2=O)C3=O)cc1Cl` [Compound 51, (S)-1-(3-Chloro-4-methylbenzyl)-3-((5-(2,7-dioxoazepan-3-yl)-6-oxo-5,6-dihydro-4H-thieno[2,3-c]pyrrol-3-yl)methyl)urea], for which the inhibition at 1 µM in the assay on TNF-α (Homo sapiens, PBMC) came to 49%; with IL-1β (Homo sapiens, PBMC) it was 38%; in the assay on IL-6 (setting [2]) it was 5%. Also, the viability at 1 µM came to 108% with MDA-MB-231 cells and 94.9% in the assay on H1048 cells. Also, the viability at 10 µM turned out to be 103% with MDA-MB-231 cells and 24.1% in the assay with H1048 cells. Further, the cytotoxicity at 1 µM with Molm-13 cells (setting [3]) was 0%.
On to `Cc1ccc(CC(=O)Nc2scc3c2CN(C2CCC(=O)NC2=O)C3=O)cc1Cl` (stereo not drawn) [Compound 56, 2-(3-Chloro-4-methylphenyl)-N-(5-(2,6-dioxopiperidin-3-yl)-4-oxo-5,6-dihydro-4H-thieno[3,4-c]pyrrol-1-yl)acetamide], for which the inhibition at 1 µM with TNF-α (Homo sapiens, PBMC) was 59%; with IL-1β (Homo sapiens, PBMC), 55%; in the assay on IL-6 (setting [2]), 12%. The viability at 1 µM was determined as 108% in the assay on MDA-MB-231 cells and 29.1% with H1048 cells. For the same compound, the viability at 10 µM in the assay on MDA-MB-231 cells is 101%; in the assay on H1048 cells, 26.3%. Further, in the assay with Molm-13 cells (MOLM-13, compound concentration 0.1 μM, read-out: % Inhibition (MOLM-13 Cell Viability)), the cytotoxicity at 0.1 µM turned out to be 10%.
Take `Cc1cnc(Nc2ccc(OCCCNC(=O)NCc3scc4c3CN(C3CCC(=O)NC3=O)C4=O)cc2)nc1Nc1cccc(S(=O)(=O)NC(C)(C)C)c1` (stereo not drawn) [Compound 62, N-(tert-Butyl)-3-((2-((4-(3-(3-((5-(2,6-dioxopiperidin-3-yl)-4-oxo-5,6-dihydro-4H-thieno[3,4-c]pyrrol-1-yl)methyl)ureido)propoxy)phenyl)amino)-5-methylpyrimidin-4-yl)amino)benzenesulfonamide]: the inhibition at 10 µM in the assay with TNF-α (Homo sapiens, PBMC) is 63%; in the assay with IL-1β (Homo sapiens, PBMC), 51%; in the assay with IL-6 (setting [2]), 15%. The cytotoxicity at 1 µM in the assay with Molm-13 cells (setting [3]) was 71%.
Consider `Cc1sc2c(c1C)C(c1ccc(Cl)cc1)=N[C@@H](CC(=O)NCCCCNCC(=O)NCc1scc3c1CN([C@H]1CCCC(=O)NC1=O)C3=O)c1nnc(C)n1-2` [Compound 63, 2-((S)-4-(4-Chlorophenyl)-2,3,9-trimethyl-6H-thieno[3,2-f][1,2,4]triazolo[4,3-a][1,4]diazepin-6-yl)-N-(4-((2-(((5-((S)-2,7-dioxoazepan-3-yl)-4-oxo-5,6-dihydro-4H-thieno[3,4-c]pyrrol-1-yl)methyl)amino)-2-oxoethyl)amino)butyl)acetamide], for which the inhibition at 10 µM with TNF-α (Homo sapiens, PBMC) came out at 34%; in the assay on IL-1β (Homo sapiens, PBMC), 27%; with IL-6 (setting [2]) it was 1%.
Consider `O=C1CCC(N2Cc3c(C4CCCC4)csc3C2=O)C(=O)N1` (stereo not drawn) [Compound 64, 3-(3-Cyclopentyl-6-oxo-4H-thieno[2,3-c]pyrrol-5(6H)-yl)piperidine-2,6-dione], for which the inhibition at 10 µM in the assay on TNF-α (Homo sapiens, PBMC) worked out at 45%; with IL-1β (Homo sapiens, PBMC), 22%; in the assay on IL-6 (setting [2]), 8%. The cytotoxicity at 10 µM in the assay with Molm-13 cells (setting [3]) is 13%.
On to `Nc1cccc2c1CN(C1CCC(=O)NC1=O)C2=O` (stereo not drawn) [lenalidomide, reference compound], for which the “reduction of expression of TNF-α” value in the assay with TNF-α (equimolar concentration (FIG. 7)) is on record as “below 60%”. In addition, the “reduction of expression of IL-1-b” value in the assay on IL-1β (equimolar concentration (FIG. 5)) is recorded as “over 60%”. In addition, the “reduction of IL-6 levels” value with IL-6 (LPS-stimulated PBMCs (FIG. 6)) is “below 60%”.

The record behind these values is US10040804B2, “Compounds targeting proteins, compositions, methods, and uses thereof” (BioTheryX, Inc., priority 2016, dated 2018).
